In general, IC50 refers to the midpoint of a concentration-inhibition curve.

One assay addresses T1, K-Ras G12S (Homo sapiens, UniProt P01116, G12S).
T1 construct: made in house; host or cells: E. coli BL21 (DE3)
The experiment in a line: HTRF resonance energy transfer assay, K-Ras G12S / SOS1 interaction. It counts as biochemical. Particulars: HTRF assay of Example 5; read-out: IC50 against K-Ras G12S. The essentials:
(§1)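 Compounds, tested in duplicate at 10 μM down to 0.01 μM, were read after about 10 min or more by HTRF as the 665/620 nm emission ratio (337 nm excitation) to derive IC50. This ratio reports FRET between an anti-GST-Eu donor on GST-K-Ras (wild-type or mutant) and an anti-6His-XL665 acceptor on His-hSOS1. Buffer: ~5 mM HEPES pH 7.4, 150 mM NaCl, 1 mM DTT, 0.05% BSA, 0.0025% Igepal.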
(In general: TR-FRET usually uses a lanthanide donor and a delayed reading to cut background.)

The next assay deals with SW620 cells. In words: Ras cellular assay, growth of cells with K-Ras G12V mutation (CellTiter-Glo). It counts as cell-based. Particulars: Homo sapiens, SW-620; cell growth, Example 9, G12V mutation; read-out: IC50 against SW620 cells. In short, it runs like this: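 IC50 values came from a four-parameter fit of CellTiter-Glo viability, read roughly 6 days after dosing with e.g. a 10-point threefold dilution series. G12V-mutant SW620 cells (e.g. 800 per well) had been plated the previous day in RPMI-1640/10% heat-inactivated FBS, on tissue culture-treated or ultra-low attachment plates.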
(ATP-based viability assays read luminescence as a measure of living cells.)

In a further assay the target is T2, K-Ras WT (Homo sapiens, UniProt P01116).
T2 construct: made in house; host or cells: E. coli BL21 (DE3)
The experiment in a line: HTRF resonance energy transfer assay, K-Ras WT / SOS1 interaction. The class given is biochemical. Particulars: HTRF assay of Example 5; read-out: IC50 against K-Ras WT. In short, it runs like this: as §1

A further assay addresses T3, K-Ras G12D (Homo sapiens, UniProt P01116, G12D).
T3 construct: made in house; host or cells: E. coli BL21 (DE3)
The experiment in a line: HTRF resonance energy transfer assay, K-Ras G12D / SOS1 interaction. The class given is biochemical. Particulars: HTRF assay of Example 5; read-out: IC50 against K-Ras G12D. In short, it runs like this:
as §1

A further assay deals with T4, K-Ras G12V (Homo sapiens, UniProt P01116, G12V).
T4 construct: made in house; host or cells: E. coli BL21 (DE3)
In words: HTRF resonance energy transfer assay, K-Ras G12V / SOS1 interaction. The class given is biochemical. The following applies: HTRF assay of Example 5; read-out: IC50 against K-Ras G12V. In short, it runs like this:
as §1

In a further assay the test system is GP2D cells. The experiment in a line: Ras cellular assay, growth of cells with K-Ras G12D mutation (CellTiter-Glo). Particulars: cell growth, Example 9, G12D mutation, read-out: IC50 against GP2D cells. The class given is cell-based.
The test system of another assay is A549 cells. The experiment in a line: Ras cellular assay, growth of cells with K-Ras G12S mutation (CellTiter-Glo). Particulars: Homo sapiens, cell growth, Example 9, G12S mutation, read-out: IC50 against A549 cells. It counts as cell-based. The essentials:
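Growth inhibition IC50 values come from four-parameter fits of CellTiter-Glo luminescence, read about 6 days after compound addition. G12S-mutant A549 cells (e.g. 800/well, RPMI-1640 + 10% heat-inactivated FBS) were plated in tissue-culture-treated or ultra-low-attachment 384-well format. Dosing began the following day with serial dilutions, e.g. 10 points, 3-fold.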

T3 sequence (P01116 1-188 isoform P01116-2 G12D): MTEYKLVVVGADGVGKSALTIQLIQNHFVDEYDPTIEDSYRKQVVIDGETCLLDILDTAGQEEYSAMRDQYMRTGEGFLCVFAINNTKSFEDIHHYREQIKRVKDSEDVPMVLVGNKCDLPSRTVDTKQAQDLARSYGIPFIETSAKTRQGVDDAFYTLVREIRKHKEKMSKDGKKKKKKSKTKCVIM
T2 sequence (P01116 1-188 isoform P01116-2): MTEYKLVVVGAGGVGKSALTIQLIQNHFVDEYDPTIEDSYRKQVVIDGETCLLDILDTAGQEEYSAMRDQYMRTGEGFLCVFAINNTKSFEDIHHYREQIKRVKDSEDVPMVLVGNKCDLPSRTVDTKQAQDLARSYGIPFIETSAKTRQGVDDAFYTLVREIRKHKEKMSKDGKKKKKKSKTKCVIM
T4 sequence (P01116 1-188 isoform P01116-2 G12V): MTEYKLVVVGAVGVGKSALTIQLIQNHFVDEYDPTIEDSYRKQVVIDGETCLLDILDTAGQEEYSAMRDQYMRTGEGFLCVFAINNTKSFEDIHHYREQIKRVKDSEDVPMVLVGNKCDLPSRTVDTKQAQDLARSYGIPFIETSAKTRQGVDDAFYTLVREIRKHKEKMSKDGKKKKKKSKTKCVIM
T1 sequence (P01116 1-188 isoform P01116-2 G12S): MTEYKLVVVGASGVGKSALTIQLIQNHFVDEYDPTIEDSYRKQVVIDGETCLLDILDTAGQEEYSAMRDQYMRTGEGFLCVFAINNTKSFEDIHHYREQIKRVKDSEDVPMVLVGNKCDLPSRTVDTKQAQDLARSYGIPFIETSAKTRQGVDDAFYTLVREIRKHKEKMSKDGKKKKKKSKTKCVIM

In the case of `N#Cc1c(N)sc2c(F)ccc(-c3c(Cl)c4c5c(nc(OC[C@@]67CCCN6C[C@H](F)C7)nc5c3F)N(C3CCC(F)(F)C3)CCO4)c12` (stereo partly drawn) [Compound 717, 2-amino-4-(8-chloro-4-(3,3-difluorocyclopentyl)-10-fluoro-2-(((2R,7aS)-2-fluorotetrahydro-1H-pyrrolizin-7a(5H)-yl)methoxy)-5,6-dihydro-4H-[1,4]oxazepino[5,6,7-de]quinazolin-9-yl)-7-fluorobenzo[b]thiophene-3-carbonitrile], the IC50 on K-Ras G12S was < 100 nM; with SW620 cells it was < 5000 nM; at K-Ras WT, < 100 nM; at K-Ras G12D it was < 100 nM; at K-Ras G12V, < 100 nM; with GP2D cells, < 500 nM. Further, the IC50 in the assay on A549 cells is < 5000 nM.
For the compound `N#Cc1c(N)sc2c(F)ccc(-c3c(Cl)c4c5c(nc(OC[C@@]67CCCN6C[C@H](F)C7)nc5c3F)N(C3CCC(C(F)F)C3)CCO4)c12` (stereo partly drawn) [Compound 718, 2-amino-4-(8-chloro-4-(3-(difluoromethyl)cyclopentyl)-10-fluoro-2-(((2R,7aS)-2-fluorotetrahydro-1H-pyrrolizin-7a(5H)-yl)methoxy)-5,6-dihydro-4H-[1,4]oxazepino[5,6,7-de]quinazolin-9-yl)-7-fluorobenzo[b]thiophene-3-carbonitrile], the IC50 on K-Ras G12S is < 100 nM; in the assay with SW620 cells, < 5000 nM; on K-Ras WT it was < 100 nM; on K-Ras G12D, < 100 nM; at K-Ras G12V, < 100 nM; in the assay with GP2D cells, < 500 nM. The IC50 in the assay on A549 cells was < 5000 nM.
With `N#Cc1c(N)sc2c(F)ccc(-c3c(Cl)c4c5c(nc(OC[C@@]67CCCN6C[C@H](F)C7)nc5c3F)N(CC(F)(F)F)CCO4)c12` [Compound 721, 2-amino-4-(8-chloro-10-fluoro-2-(((2R,7aS)-2-fluorotetrahydro-1H-pyrrolizin-7a(5H)-yl)methoxy)-4-(2,2,2-trifluoroethyl)-5,6-dihydro-4H-[1,4]oxazepino[5,6,7-de]quinazolin-9-yl)-7-fluorobenzo[b]thiophene-3-carbonitrile], the 50% inhibitory concentration (IC50) was < 100 nM at K-Ras G12S; < 5000 nM in the assay with SW620 cells; < 100 nM at K-Ras WT; < 100 nM at K-Ras G12D; < 100 nM on K-Ras G12V; < 500 nM in the assay on GP2D cells. In addition, the IC50 in the assay with A549 cells was < 5000 nM.
For the compound `CN(C)C1(CN2CCOc3c(Cl)c(-c4ccc(F)c5sc(N)c(C#N)c45)c(F)c4nc(OC[C@@]56CCCN5C[C@H](F)C6)nc2c34)CC1` [Compound 725, 2-amino-4-(8-chloro-4-((1-(dimethylamino)cyclopropyl)methyl)-10-fluoro-2-(((2R,7aS)-2-fluorotetrahydro-1H-pyrrolizin-7a(5H)-yl)methoxy)-5,6-dihydro-4H-[1,4]oxazepino[5,6,7-de]quinazolin-9-yl)-7-fluorobenzo[b]thiophene-3-carbonitrile], the IC50 at K-Ras G12S is < 100 nM; in the assay on SW620 cells, < 5000 nM; at K-Ras WT it was < 100 nM; at K-Ras G12D it was < 100 nM; on K-Ras G12V, < 100 nM; in the assay on GP2D cells, < 500 nM. Also, in the assay with A549 cells, the IC50 was < 5000 nM.
As to `C=C[C@H]1COc2c(Cl)c(-c3ccc(F)c4sc(N)c(C#N)c34)c(F)c3nc(OC[C@@]45CCCN4C[C@H](F)C5)nc(c23)N1C1CCOC1` (stereo partly drawn) [Compound 726, 2-amino-4-((5S)-8-chloro-10-fluoro-2-(((2R,7aS)-2-fluorotetrahydro-1H-pyrrolizin-7a(5H)-yl)methoxy)-4-(tetrahydrofuran-3-yl)-5-vinyl-5,6-dihydro-4H-[1,4]oxazepino[5,6,7-de]quinazolin-9-yl)-7-fluorobenzo[b]thiophene-3-carbonitrile], the IC50 is < 100 nM at K-Ras G12S; < 5000 nM with SW620 cells; < 100 nM on K-Ras WT; < 100 nM on K-Ras G12D; < 100 nM on K-Ras G12V; < 500 nM in the assay on GP2D cells. In addition, the IC50 in the assay with A549 cells was < 5000 nM.
On to `N#Cc1c(N)sc2c(F)ccc(-c3c(Cl)c4c5c(nc(OC[C@@]67CCCN6C[C@H](F)C7)nc5c3F)N(C3CCN(C(=O)[C@H]5CCOC5)C3)CCO4)c12` (stereo partly drawn) [Compound 736, 2-amino-4-(8-chloro-10-fluoro-2-(((2R,7aS)-2-fluorotetrahydro-1H-pyrrolizin-7a(5H)-yl)methoxy)-4-(1-((S)-tetrahydrofuran-3-carbonyl)pyrrolidin-3-yl)-5,6-dihydro-4H-[1,4]oxazepino[5,6,7-de]quinazolin-9-yl)-7-fluorobenzo[b]thiophene-3-carbonitrile], for which the IC50 at K-Ras G12S is < 100 nM; in the assay with SW620 cells, < 5000 nM; on K-Ras WT, < 100 nM; on K-Ras G12D, < 100 nM; on K-Ras G12V, < 100 nM; with GP2D cells it was < 500 nM. The IC50 in the assay on A549 cells was < 5000 nM.
As for `COC1(C)CC(N2CCOc3c(Cl)c(-c4ccc(F)c5sc(N)c(C#N)c45)c(F)c4nc(OC[C@@]56CCCN5C[C@H](F)C6)nc2c34)C1` (stereo partly drawn) [Compound 737, 2-amino-4-(8-chloro-10-fluoro-2-(((2R,7aS)-2-fluorotetrahydro-1H-pyrrolizin-7a(5H)-yl)methoxy)-4-(3-methoxy-3-methylcyclobutyl)-5,6-dihydro-4H-[1,4]oxazepino[5,6,7-de]quinazolin-9-yl)-7-fluorobenzo[b]thiophene-3-carbonitrile], the concentration for half-maximal inhibition (IC50) was < 100 nM on K-Ras G12S; < 5000 nM in the assay with SW620 cells; < 100 nM on K-Ras WT; < 100 nM at K-Ras G12D; < 100 nM at K-Ras G12V; < 500 nM with GP2D cells. For the same compound, the IC50 in the assay on A549 cells is < 5000 nM.
For the compound `N#Cc1c(N)sc2c(F)ccc(-c3c(Cl)c4c5c(nc(OC[C@@]67CCCN6C[C@H](F)C7)nc5c3F)N(C3CCC(OC(F)F)C3)CCO4)c12` (stereo partly drawn) [Compound 740, 2-amino-4-(8-chloro-4-(3-(difluoromethoxy)cyclopentyl)-10-fluoro-2-(((2R,7aS)-2-fluorotetrahydro-1H-pyrrolizin-7a(5H)-yl)methoxy)-5,6-dihydro-4H-[1,4]oxazepino[5,6,7-de]quinazolin-9-yl)-7-fluorobenzo[b]thiophene-3-carbonitrile], the IC50 on K-Ras G12S was < 100 nM; with SW620 cells, < 5000 nM; on K-Ras WT it was < 100 nM; at K-Ras G12D, < 100 nM; on K-Ras G12V it was < 100 nM; in the assay on GP2D cells, < 500 nM. Moreover, the IC50 in the assay on A549 cells is < 5000 nM.
Turning to `CO[C@@H](C)C(=O)N1CCC(N2CCOc3c(Cl)c(-c4ccc(F)c5sc(N)c(C#N)c45)c(F)c4nc(OC[C@@]56CCCN5C[C@H](F)C6)nc2c34)C1` (stereo partly drawn) [Compound 742, 2-amino-4-(8-chloro-10-fluoro-2-(((2R,7aS)-2-fluorotetrahydro-1H-pyrrolizin-7a(5H)-yl)methoxy)-4-(1-((S)-2-methoxypropanoyl)pyrrolidin-3-yl)-5,6-dihydro-4H-[1,4]oxazepino[5,6,7-de]quinazolin-9-yl)-7-fluorobenzo[b]thiophene-3-carbonitrile], the IC50 on K-Ras G12S is < 100 nM; with SW620 cells, < 5000 nM; at K-Ras WT, < 100 nM; on K-Ras G12D, < 100 nM; on K-Ras G12V, < 100 nM; in the assay on GP2D cells it was < 500 nM. The IC50 with A549 cells was < 5000 nM.
Consider `CC(C)(O)C1COc2c(Cl)c(-c3ccc(F)c4sc(N)c(C#N)c34)c(F)c3nc(OC[C@@]45CCCN4C[C@H](F)C5)nc(c23)N1CC(F)F` (stereo partly drawn) [Compound 755, 2-amino-4-(8-chloro-4-(2,2-difluoroethyl)-10-fluoro-2-(((2R,7aS)-2-fluorotetrahydro-1H-pyrrolizin-7a(5H)-yl)methoxy)-5-(2-hydroxypropan-2-yl)-5,6-dihydro-4H-[1,4]oxazepino[5,6,7-de]quinazolin-9-yl)-7-fluorobenzo[b]thiophene-3-carbonitrile], for which the IC50 on K-Ras G12S was < 100 nM; with SW620 cells it was < 5000 nM; at K-Ras WT, < 100 nM; at K-Ras G12D it was < 100 nM; at K-Ras G12V it was < 100 nM; in the assay on GP2D cells it was < 500 nM. Besides, the IC50 with A549 cells is < 5000 nM.

Values taken from patent publication US12209102B2, “Heterocyclic compounds and uses thereof” (Kumquat Biosciences Inc., priority 2022, dated 2025).
